Reference: US20250228954A1, “Designing Antisense Oligonucleotide Delivery Peptides by Interpretable Machine Learning” (Sarepta Therapeutics, Inc., priority 2020, published 2025)

What was measured:
HeLa 654 cells [1] = assay: Cytotoxicity by gated cell count and propidium iodide staining in flow cytometry; format: cell-based, human; settings: at the concentrations tested in dose-response, 22 h
From the text: The different modules led to several noticeable trends in the level of cellular fluorescence (FIG. 6). When module 2 was DPV6, the overall construct consistently led to high fluorescence, regardless of which peptides were placed in module 3 and 4. However, when either pVEC or TP10 was placed in module 2, minor cellular fluorescence was observed. A gated cell count was used during flow cytometry as an indirect read-out to control for the toxicity of the compounds. Highly toxic compounds led to a reduction in overall cell count and non-viable cells were gated out based upon propidium iodide staining. In this experiment, it was observed that when the module 3 peptide was the nuclear localization sequence KRVK, lower cell counts were consistently observed.
In the same format as described above, HeLa 654 cells were treated with varying concentrations of Mach 2, 3, 4, and 7 for 22 hours and analyzed by flow cytometry.
(§1) HeLa 654 cells were maintained in MEM supplemented with 10% (v/v) fetal bovine serum (FBS) and 1% (v/v) penicillin-streptomycin at 37° C. and 5% CO2. Eighteen hours prior to treatment, the cells were plated at a density of 5,000 cells per well in a 96-well plate in MEM supplemented with 10% FBS and 1% penicillin-streptomycin. The day of the experiment, the 384 well plate containing the crude reaction mixtures in DMSO was diluted to 100 μM by the addition of 16.8 μL of PBS to the 3.2 μL reaction mixture. Then, each construct was diluted to 5 μM in MEM supplemented with 10% FBS and 1% penicillin-streptomycin. Cells were incubated with each conjugate at a concentration of 5 μM for 22 hours at 37° C. and 5% CO2. Next, the treatment media was aspirated the cells were incubated with Trypsin-EDTA 0.25% for 15 min at 37° C. and 5% CO2, washed 1× with PBS, and resuspended in PBS with 2% FBS and 2 μg/mL propidium iodide. Flow cytometry analysis was carried out on a BD LSRII flow cytometer. Gates were applied to the data to ensure that cells that were highly positive for propidium iodide or had forward/side scatter readings that were sufficiently different from the main cell population were excluded. Each sample was capped at 5,000 gated events.

HeLa 654 cells [2] = assay: HeLa-654 eGFP assay (corrective splicing / exon skipping by PMO IVS2-654); format: cell-based, human; settings: 5 μM, 22 h; for FOLD OVER PMO: eGFP fluorescence of PMO-peptide conjugate relative to unconjugated PMO
Experimental: With the 36 constructs synthesized, the ability to modulate PMO activity using the modified HeLa cell assay was tested. The HeLa-654 cells were stably transfected to express a nonfluorescent eGFP protein. The eGFP gene is interrupted by a mutant intron from the human β-globin gene (IVS2-654). The insertion alters pre-mRNA splicing to cause retention of a fragment in the mature mRNA that results in a nonfluorescent protein. PMO IVS2-654 base-pairs with the B-globin insertion, modifies mRNA splicing, and thereby leads to expression of fluorescent eGFP.
For treatment, the crude reaction mixture was diluted to 5 μM in media. The concentration of the modular construct was calculated based on the original concentration of the module 1-2 conjugate mixed in the reaction. Using media containing 10% fetal bovine serum (FBS), the cells were treated with each construct for 22 hours, after which the cellular fluorescence was measured by flow cytometry.
From the lists of hundreds of predicted peptide sequences, twenty candidates were selected that varied in length, charge, and predicted activity to synthesize and test. Just as with the PMO-peptide library, the PMO-Mach constructs were first tested for PMO delivery in the HeLa 654 assay at 5 μM in complete media for 22 hours and analyzed by flow cytometry (FIG. 14). Experiments were conducted using three technical triplicates and two or three biological replicates.
as §1
Analysis was conducted using Graphpad Prism 7. For each sample, the mean fluorescence intensity and the number of gated cells was measured (FIGS. 8 and 9) and the intensity multiplied by the cell number was calculated (FIG. 7).

Row | Compound | cytotoxicity as determined by cell count and PI staining (HeLa 654 cells [1]) | FOLD OVER PMO (HeLa 654 cells [2]) | PMO delivery / activity, result in words (HeLa 654 cells [2])
1 | CSCC[C@H](NC(=O)[C@H](CCCCN)NC(=O)[C@H](CCCCN)NC(=O)[C@@H]1CCCN1C(=O)[C@H](CCC(N)=O)NC(=O)[C@@H]1CCCN1C(=O)[C@@H](NC(=O)[C@H](CCCCN)NC(=O)[C@H](CCCCN)NC(=O)[C@H](CCCCN)NC(=O)[C@@H]1CCCN1C(=O)[C@H](Cc1c[nH]c2ccccc12)NC(=O)[C@H](CCCNC(=N)N)NC(=O)[C@H](Cc1c[nH]cn1)NC(=O)[C@H](CCCCN)NC(=O)[C@H](CCCCN)NC(=O)[C@H](CCCCN)NC(=O)[C@H](CC(N)=O)NC(=O)[C@H](CCC(N)=O)NC(=O)[C@H](CCCCN)NC(=O)[C@H](CCCCN)NC(=O)CNC(=O)[C@H](CCCCN)NC(=O)[C@H](CCCCN)NC(=O)CCCCn1nnc2c1-c1ccccc1N(C(=O)CCCCC(=O)N1C[C@@H](COP(=O)(N(C)C)N3C[C@@H](COP(=O)(N(C)C)N4C[C@@H](COP(=O)(N(C)C)N5C[C@@H](COP(=O)(N(C)C)N6C[C@@H](COP(=O)(N(C)C)N7C[C@@H](COP(=O)(N(C)C)N8C[C@@H](COP(=O)(N(C)C)N9C[C@@H](COP(=O)(N(C)C)N%10C[C@@H](COP(=O)(N(C)C)N%11C[C@@H](COP(=O)(N(C)C)N%12C[C@@H](COP(=O)(N(C)C)N%13C[C@@H](COP(=O)(N(C)C)N%14C[C@@H](COP(=O)(N(C)C)N%15C[C@@H](COP(=O)(N(C)C)N%16C[C@@H](COP(=O)(N(C)C)N%17C[C@@H](COP(=O)(N(C)C)N%18C[C@@H](COP(=O)(N(C)C)N%19C[C@@H](COP(=O)(N(C)C)N%20CCN(C(=O)OCCOCCOCCO)CC%20)O[C@@H](n%20cnc%21c(=O)[nH]c(N)nc%21%20)C%19)O[C@@H](n%19ccc(N)nc%19=O)C%18)O[C@@H](n%18cc(C)c(=O)[nH]c%18=O)C%17)O[C@@H](n%17cnc%18c(N)ncnc%18%17)C%16)O[C@@H](n%16cc(C)c(=O)[nH]c%16=O)C%15)O[C@@H](n%15cc(C)c(=O)[nH]c%15=O)C%14)O[C@@H](n%14cnc%15c(N)ncnc%15%14)C%13)O[C@@H](n%13ccc(N)nc%13=O)C%12)O[C@@H](n%12ccc(N)nc%12=O)C%11)O[C@@H](n%11cc(C)c(=O)[nH]c%11=O)C%10)O[C@@H](n%10cc(C)c(=O)[nH]c%10=O)C9)O[C@@H](n9cnc%10c(N)ncnc%109)C8)O[C@@H](n8cnc9c(N)ncnc98)C7)O[C@@H](n7ccc(N)nc7=O)C6)O[C@@H](n6ccc(N)nc6=O)C5)O[C@@H](n5ccc(N)nc5=O)C4)O[C@@H](n4cnc5c(N)ncnc54)C3)O[C@@H](n3cnc4c(=O)[nH]c(N)nc43)C1)Cc1ccccc1-2)C(C)C)C(=O)N[C@@H](Cc1ccccc1)C(=O)N[C@@H](CCCCN)C(=O)N[C@@H](CCC(N)=O)C(=O)NCC(=O)N[C@@H](C)C(=O)NCCC(=O)NCCCCCC(=O)N[C@@H](CCCNC(=N)N)C(=O)NCCCCCC(N)=O (some centres unmarked) [MACH 4] | no cytotoxicity | 25 | –
2 | CC[C@H](C)[C@H](NC(=O)[C@H](CC(C)C)NC(=O)[C@H](CCCNC(=N)N)NC(=O)CCCCCNC(=O)[C@H](Cc1ccc(O)cc1)NC(=O)[C@H](CCCCN)NC(=O)CCCCCNC(=O)[C@H](C)NC(=O)[C@H](CO)NC(=O)[C@H](CCCNC(=N)N)NC(=O)[C@H](C)NC(=O)[C@H](CCCCN)NC(=O)[C@H](Cc1c[nH]c2ccccc12)NC(=O)[C@H](CC(C)C)NC(=O)[C@H](Cc1c[nH]c2ccccc12)NC(=O)[C@H](CCCCN)NC(=O)[C@H](CCCCN)NC(=O)[C@H](CCCCN)NC(=O)[C@H](CCC(N)=O)NC(=O)[C@H](CCCCN)NC(=O)[C@H](CO)NC(=O)[C@H](CO)NC(=O)[C@H](CCCCN)NC(=O)[C@H](CCCCN)NC(=O)[C@H](CC(C)C)NC(=O)[C@H](CCCNC(=N)N)NC(=O)[C@H](CCCCN)NC(=O)[C@H](CCCCN)NC(=O)[C@H](CCCCN)NC(=O)[C@H](Cc1c[nH]c2ccccc12)NC(=O)[C@H](CC(C)C)NC(=O)[C@H](C)NC(=O)[C@H](C)NC(=O)[C@H](C)NC(=O)[C@@H]1CCCN1C(=O)[C@@H](NC(=O)[C@H](CCCCN)NC(=O)[C@H](Cc1c[nH]c2ccccc12)NC(=O)[C@H](C)NC(=O)[C@H](CCCNC(=N)N)NC(=O)[C@H](C)NC(=O)[C@H](C)NC(=O)CCNC(=O)[C@H](CCC(N)=O)NC(=O)[C@@H](NC(=O)[C@H](C)NC(=O)CCCCCNC(=O)[C@@H]1CCCN1C(=O)[C@H](Cc1c[nH]cn1)NC(=O)[C@H](CCCCN)NC(=O)CCCCCNC(=O)CCCCn1nnc2c1-c1ccccc1N(C(=O)CCCCC(=O)N1C[C@@H](COP(=O)(N(C)C)N3C[C@@H](COP(=O)(N(C)C)N4C[C@@H](COP(=O)(N(C)C)N5C[C@@H](COP(=O)(N(C)C)N6C[C@@H](COP(=O)(N(C)C)N7C[C@@H](COP(=O)(N(C)C)N8C[C@@H](COP(=O)(N(C)C)N9C[C@@H](COP(=O)(N(C)C)N%10C[C@@H](COP(=O)(N(C)C)N%11C[C@@H](COP(=O)(N(C)C)N%12C[C@@H](COP(=O)(N(C)C)N%13C[C@@H](COP(=O)(N(C)C)N%14C[C@@H](COP(=O)(N(C)C)N%15C[C@@H](COP(=O)(N(C)C)N%16C[C@@H](COP(=O)(N(C)C)N%17C[C@@H](COP(=O)(N(C)C)N%18C[C@@H](COP(=O)(N(C)C)N%19C[C@@H](COP(=O)(N(C)C)N%20CCN(C(=O)OCCOCCOCCO)CC%20)O[C@@H](n%20cnc%21c(=O)[nH]c(N)nc%21%20)C%19)O[C@@H](n%19ccc(N)nc%19=O)C%18)O[C@@H](n%18cc(C)c(=O)[nH]c%18=O)C%17)O[C@@H](n%17cnc%18c(N)ncnc%18%17)C%16)O[C@@H](n%16cc(C)c(=O)[nH]c%16=O)C%15)O[C@@H](n%15cc(C)c(=O)[nH]c%15=O)C%14)O[C@@H](n%14cnc%15c(N)ncnc%15%14)C%13)O[C@@H](n%13ccc(N)nc%13=O)C%12)O[C@@H](n%12ccc(N)nc%12=O)C%11)O[C@@H](n%11cc(C)c(=O)[nH]c%11=O)C%10)O[C@@H](n%10cc(C)c(=O)[nH]c%10=O)C9)O[C@@H](n9cnc%10c(N)ncnc%109)C8)O[C@@H](n8cnc9c(N)ncnc98)C7)O[C@@H](n7ccc(N)nc7=O)C6)O[C@@H](n6ccc(N)nc6=O)C5)O[C@@H](n5ccc(N)nc5=O)C4)O[C@@H](n4cnc5c(N)ncnc54)C3)O[C@@H](n3cnc4c(=O)[nH]c(N)nc43)C1)Cc1ccccc1-2)C(C)C)C(C)C)C(N)=O (some centres unmarked) [MACH 7] | no cytotoxicity | 36 | nearly identical
